Experimental data from ChEMBL document CHEMBL1129141, “Synthesis, characterization, and anti-HIV activity of some 2-p-X-phenyl-1,3-N,N-diphenyl-amidines” (Bioorg Med Chem Lett, 1996).

What was measured:
[1] = SI (selectivity index) is the ratio of TC50 to EC50; assay type: functional
[2] = Compound was tested for the drug concentration which reduces the viability of uninfected C8166 cells by 50%; assay type: cell-based; details: human, read-out: TC50 (the source's name)
[3] = tested on: Human immunodeficiency virus 1; experiment: Compound was tested for the drug concentration which reduces viral antigen production by 50%; assay type: functional, organism-based

| SMILES | SI [1] | CC50 [2] [µM] | EC50 [3] [µM] |
| --- | --- | --- | --- |
| Brc1ccc(/C(=N/c2ccccc2)Nc2ccccc2)cc1 | 2 | 200 | 100 |
| Clc1ccc(/C(=N/c2ccccc2)Nc2ccccc2)cc1 | 125 | 1000 | 8 |
| COc1ccc(/C(=N/c2ccccc2)Nc2ccccc2)cc1 | < 1 | 80 | > 80 |
| Cc1cn([C@H]2C[C@H](N=[N+]=[N-])[C@@H](CO)O2)c(=O)[nH]c1=O [ZIDOVUDINE] | > 6 | > 1000 | 0.016 |
| O=[N+]([O-])c1ccc(/C(=N/c2ccccc2)Nc2ccccc2)cc1 | 4 | 80 | 20 |
| c1ccc(/N=C(\Nc2ccccc2)c2ccccc2)cc1 | < 1 | 400 | > 400 |
| Cc1ccc(/C(=N/c2ccccc2)Nc2ccccc2)cc1 | < 1 | > 500 | > 500 |
